The test relates to 653999-131-R-J2-PDC complex spheroid viability. Nature of the test: Anticancer human tumor 653999-131-R-J2-PDC patient-derived lung adenocarcinoma cell line growth inhibition. The note with it: for viability, T/C: stronger effect = lower value. In short, it runs like this: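 Complex spheroids of tumor cells with HUVEC and human MSCs, exposed to iadademstat combined with other agents. Each agent tested in half-log steps from near clinical Cmax (else 10 microM top), DMSO ≤0.25%.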

The mark [1] stands for this setting: curve of first compound, second compound 0.1 µM.
Setting [2] is: curve of first compound, second compound 0.316 µM.
The mark [3] stands for this setting: curve of first compound, second compound 1 µM.
The mark [4] stands for this setting: curve of first compound, second compound 3.16 µM.
Where [5] appears, read: curve of first compound, second compound 10 µM.
[6] abbreviates: second compound 0.1 µM, first compound 0.00316 µM.
[7] abbreviates: second compound 0.1 µM, first compound 0.01 µM.
[8] abbreviates: second compound 0.1 µM, first compound 0.0316 µM.
Setting [9] is: second compound 0.1 µM, first compound 0.1 µM.
Where [10] appears, read: second compound 0.1 µM, first compound 0.316 µM.
The mark [11] stands for this setting: second compound 0.1 µM, first compound 1 µM.
Setting [12] is: second compound 0.316 µM, first compound 0.00316 µM.
Where [13] appears, read: second compound 0.316 µM, first compound 0.01 µM.
[14] abbreviates: second compound 0.316 µM, first compound 0.0316 µM.
Setting [15] is: second compound 0.316 µM, first compound 0.1 µM.
[16] abbreviates: second compound 0.316 µM, first compound 0.316 µM.
The mark [17] stands for this setting: second compound 0.316 µM, first compound 1 µM.
Setting [18] is: second compound 1 µM, first compound 0.00316 µM.
The mark [19] stands for this setting: second compound 1 µM, first compound 0.01 µM.
Where [20] appears, read: second compound 1 µM, first compound 0.0316 µM.
[21] abbreviates: second compound 1 µM, first compound 0.1 µM.
Setting [22] is: second compound 1 µM, first compound 0.316 µM.
[23] abbreviates: second compound 1 µM, first compound 1 µM.
Setting [24] is: second compound 3.16 µM, first compound 0.00316 µM.
The mark [25] stands for this setting: second compound 3.16 µM, first compound 0.01 µM.
Where [26] appears, read: second compound 3.16 µM, first compound 0.0316 µM.
[27] abbreviates: second compound 3.16 µM, first compound 0.1 µM.
Setting [28] is: second compound 3.16 µM, first compound 0.316 µM.
Setting [29] is: second compound 3.16 µM, first compound 1 µM.
Setting [30] is: second compound 10 µM, first compound 0.00316 µM.
Setting [31] is: second compound 10 µM, first compound 0.01 µM.
Setting [32] is: second compound 10 µM, first compound 0.0316 µM.
Where [33] appears, read: second compound 10 µM, first compound 0.1 µM.
Setting [34] is: second compound 10 µM, first compound 0.316 µM.
Setting [35] is: second compound 10 µM, first compound 1 µM.

Several values for one entry are separate records, joined by “and”; a condition that tells them apart may be missing. Identical values can stand only once. Some results are limits rather than exact numbers.
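Note: spheroids exposed to agents for seven days before readout.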

As usually defined, the IC50 is the concentration that gives 50% inhibition. For orientation: viability, T/C means the result in the treated group divided by that in the control group, in per cent. With `O=C(C=Cn1cnc(-c2cc(C(F)(F)F)cc(C(F)(F)F)c2)n1)NNc1cnccn1` + NC1CC1c1ccc(-c2cccc(O)c2)cc1, the IC50 is, setting by setting: under setting [1], 14.8 nM; under setting [2], 6.9 nM; under setting [3], under 3.16 nM; under setting [4], under 3.16 nM; under setting [5], under 3.16 nM. For the same compound, the viability, T/C by setting is: under setting [6], 53.4%; under setting [7], 53.9%; under setting [8], 47.5%; under setting [9], 38.8%; under setting [10], 39%; under setting [11], 29.2%. Besides, the viability, T/C runs as follows: under setting [12], 54%; under setting [13], 48.3%; under setting [14], 44.3%; under setting [15], 34.9%; under setting [16], 37.2%; under setting [17], 31.8%. Moreover, the viability, T/C is 47.8% under setting [18]; 51.5% under setting [19]; 43% under setting [20]; 34.2% under setting [21]; 27.2% under setting [22]; 27.4% under setting [23]. Further, the viability, T/C by setting is: under setting [24], 46.4%; under setting [25], 45.8%; under setting [26], 38.8%; under setting [27], 41.1%; under setting [28], 30%; under setting [29], 24.8%. Further, the viability, T/C is, setting by setting: under setting [30], 49.5%; under setting [31], 48.8%; under setting [32], 39.5%; under setting [33], 39.6%; under setting [34], 33.7%; under setting [35], 27%.

On to `CC1COCCN1c1cc(-c2ccnn2C)c2ccnc(-c3ccn[nH]3)c2n1` (centres undefined) + NC1CC1c1ccc(-c2cccc(O)c2)cc1, for which the IC50 was 5.31 nM under setting [1]; under 3.16 nM under setting [2]; under 3.16 nM under setting [3]; under 3.16 nM under setting [4]; under 3.16 nM under setting [5]. The viability, T/C runs as follows: under setting [6], 52%; under setting [7], 50%; under setting [8], 44.3%; under setting [9], 29.7%; under setting [10], 42.7%; under setting [11], 45.7%. The viability, T/C under setting [12] is 47.7%; the viability, T/C under setting [13] is 44.4%; the viability, T/C under setting [14] was 36.7%; the viability, T/C under setting [15] is 36.6%; the viability, T/C under setting [16] is 36.1%; the viability, T/C under setting [17] was 48.5%. The viability, T/C is 45.5% under setting [18]; 47% under setting [19]; 36.8% under setting [20]; 32.7% under setting [21]; 31% under setting [22]; 36.3% under setting [23]. The viability, T/C by setting is: under setting [24], 49.5%; under setting [25], 45.5%; under setting [26], 36.5%; under setting [27], 28.8%; under setting [28], 36.1%; under setting [29], 39.7%. The viability, T/C is 47.5% under setting [30]; 46.6% under setting [31]; 39.5% under setting [32]; 29% under setting [33]; 29.7% under setting [34]; 34.7% under setting [35].

Consider `Nc1ccn(C2OC(CO)C(O)C2(F)F)c(=O)n1` (centres undefined), for which the viability, T/C is, setting by setting: (compound 0.000949 µM) 64.7% and 96.4%; (compound 0.003 µM) 56.8% and 94.6%; (compound 0.00949 µM) 49% and 73.2%; (compound 0.03 µM) 38.4% and 57.3%; (compound 0.0949 µM) 37.5% and 50.2%; (compound 0.3 µM) 34.7% and 50.1%.

Regarding `CC[C@@]1(O)C(=O)OCc2c1cc1n(c2=O)Cc2cc3c(CN(C)C)c(O)ccc3nc2-1` + NC1CC1c1ccc(-c2cccc(O)c2)cc1, the IC50 by setting is: under setting [1], 11.6 nM; under setting [2], 9.2 nM; under setting [3], 9.32 nM; under setting [4], 11.3 nM; under setting [5], 13.9 nM. Moreover, the viability, T/C by setting is: (second compound 0.1 µM, first compound 0.000316 µM) 114%; (second compound 0.1 µM, first compound 0.001 µM) 92.8%; under setting [6], 85%; under setting [7], 49.6%; under setting [8], 33.6%; under setting [9], 27.9%. In addition, the viability, T/C runs as follows: (second compound 0.316 µM, first compound 0.000316 µM) 111%; (second compound 0.316 µM, first compound 0.001 µM) 108%; under setting [12], 83.8%; under setting [13], 45.6%; under setting [14], 35.6%; under setting [15], 23.2%. In addition, the viability, T/C runs as follows: (second compound 1 µM, first compound 0.000316 µM) 82.6%; (second compound 1 µM, first compound 0.001 µM) 101%; under setting [18], 79.6%; under setting [19], 47.4%; under setting [20], 35.8%; under setting [21], 25.5%. The viability, T/C is 91.6% (second compound 3.16 µM, first compound 0.000316 µM); 85.8% (second compound 3.16 µM, first compound 0.001 µM); 87.1% under setting [24]; 52% under setting [25]; 31.9% under setting [26]; 27.9% under setting [27]. Besides, the viability, T/C is, setting by setting: (second compound 10 µM, first compound 0.000316 µM) 86.9%; (second compound 10 µM, first compound 0.001 µM) 87.6%; under setting [30], 80.7%; under setting [31], 54.9%; under setting [32], 36.1%; under setting [33], 26.4%.

As for `Nc1ncn(C2CC(O)C(CO)S2)c(=O)n1` (centres undefined), the viability, T/C was 96% and 102% (compound 0.000949 µM); 96.2% and 104% (compound 0.003 µM); 103% and 100% (compound 0.00949 µM); 76.5% and 87.5% (compound 0.03 µM); 76.6% and 87.2% (compound 0.0949 µM); 62.8% and 79.2% (compound 0.3 µM). Under “curve of compound”, the IC50 was over 300 nM.

As to `COc1ccc([C@@H](O)c2cc(-c3ncnc4cc(N5CCOCC5)ccc34)c(F)cc2Cl)nn1`, the viability, T/C is 101% and 104% (compound 0.0316 µM); 93.2% and 96.7% (compound 0.1 µM); 77.3% and 87.9% (compound 0.316 µM); 61.9% and 64.3% (compound 1 µM); 44.9% and 50.9% (compound 3.16 µM); 29.5% and 30.6% (compound 10 µM). Also, the IC50 (curve of compound) was 2190 nM and 2880 nM.

As to `CC[C@@]1(O)C(=O)OCc2c1cc1n(c2=O)Cc2cc3c(CN(C)C)c(O)ccc3nc2-1`, the viability, T/C is 108% and 99% (compound 0.000316 µM); 88.5% and 100% (compound 0.001 µM); 66% and 83.8% (compound 0.00316 µM); 41.8% and 55.4% (compound 0.01 µM); 34.3% and 41.5% (compound 0.0316 µM); 22.4% and 29.9% (compound 0.1 µM). The concentration for half-maximal inhibition (IC50) (curve of compound) was 7.34 nM and 15.4 nM.

For the compound `O=C(C=Cn1cnc(-c2cc(C(F)(F)F)cc(C(F)(F)F)c2)n1)NNc1cnccn1`, the viability, T/C is 63.9% and 63.1% (compound 0.00316 µM); 51.8% and 58% (compound 0.01 µM); 43.4% and 58.5% (compound 0.0316 µM); 40.6% and 47.5% (compound 0.1 µM); 31.4% and 38.6% (compound 0.316 µM); 21.8% and 36.8% (compound 1 µM). In addition, where the note is “curve of compound”, the IC50 was 16.9 nM and 76.1 nM.

For the origin of these results see PubChem BioAssay AID1918939 (Molecular Pharmacology Branch, DTP, NCI, 2023).
